In this assay the test system is Plasmodium berghei. Description: Luciferase/luciferin-expressing antifolate-resistant parasites were used to infect a culture of HepG2 cells that were pre-incubated with compounds. Infected hepatocytes emit light due to the luciferase reaction. Assay results are presented as the percent inhibition of light emission compared to control. […]. The format is functional. The conditions noted are these: sporozoite; for IC90: read-out: LUCIFERASE INFECTION ASSAY - IC90.

The mark [1] stands for this setting: read-out: LUCIFERASE INFECTION ASSAY - IC50.

This is an account of results in ChEMBL document CHEMBL4483862, “Open-source discovery of chemical leads for next-generation chemoprotective antimalarials” (2018).

The structures appear in SMILES notation.

For orientation: IC50 means the midpoint of a concentration-inhibition curve. The IC90 is the concentration at which the effect reaches the 90% level.

Regarding `Cc1ccc(NS(=O)(=O)c2ccc(C(=O)NNC(=O)COc3ccc(C#N)cc3)cc2)cc1`, the IC90 is more than 10 µM. Also, the IC50 under setting [1] is more than 10 µM.

In the case of `Cc1sc2nc(CN3CCCC3)nc(Oc3ccc4ccncc4c3)c2c1C`, the IC90 was more than 10 µM. Besides, under setting [1], the IC50 stood at 9.51 µM.

On to `COc1ccc(OC)c(NC(=O)Nc2ccc(OC(F)(F)F)cc2)c1`, for which the IC90 was more than 9.26 µM. Further, the IC50 (PBLUC_HILL_SLOPE 22.3, PBLUC_R_SQUARED 0.0229, read-out: LUCIFERASE INFECTION ASSAY - IC50) worked out at 9.07 µM.

Turning to `COC(=O)c1cc2ccccc2cc1OC(=O)COc1ccc(C#N)cc1`, the IC90 was more than 10 µM. Under setting [1], the IC50 was more than 10 µM.

With `CNc1nnc(Sc2nc(CN3CCCCC3)nc3scc(-c4ccccc4)c23)s1`, the IC90 amounted to 3.67 µM. The IC50 (HEPG2TOX_HILL_SLOPE 0.991, HEPG2TOX_R_SQUARED 0.829, PBLUC_HILL_SLOPE 15.5, PBLUC_R_SQUARED 0.389, read-out: LUCIFERASE INFECTION ASSAY - IC50) stood at 3.19 µM.

For the compound `FC(F)(F)c1cccc(Nc2cc3[nH]c(-c4ccccn4)cc3cn2)c1`, the IC90 is more than 10 µM. In addition, where the note is “HEPG2TOX_HILL_SLOPE 12.3, HEPG2TOX_R_SQUARED 0.757, PBLUC_HILL_SLOPE 15.4, PBLUC_R_SQUARED 0.209, read-out: LUCIFERASE INFECTION ASSAY - IC50”, the IC50 came to 9.04 µM.

`Oc1cccc(-c2cnc3cnc(-c4ccccc4)cn23)c1`: the IC90 was more than 11.5 µM. The IC50 (HEPG2TOX_HILL_SLOPE 7.12, HEPG2TOX_R_SQUARED 0.466, PBLUC_HILL_SLOPE 2.24, PBLUC_R_SQUARED 0.572, read-out: LUCIFERASE INFECTION ASSAY - IC50) is 7.48 µM.

Take `Fc1ccc(CNCC2(c3ccnc(-c4ccc(Cl)cc4)c3)CC2)cc1`: the IC90 is more than 10 µM. For the same compound, the IC50 (PBLUC_HILL_SLOPE 1.81, PBLUC_R_SQUARED 0.142, read-out: LUCIFERASE INFECTION ASSAY - IC50) is more than 10 µM.

As to `Cc1nc2sccc2c(=O)n1NC(=O)c1ccc2ccccc2n1`, the IC90 was more than 10 µM. The IC50 under setting [1] is more than 10 µM.

For `Cn1c(NCc2ccccc2)nc2cnc(Nc3cccc(C(F)(F)F)c3)cc21`, the IC90 was more than 10 µM. In addition, the IC50 (PBLUC_HILL_SLOPE 1.17, PBLUC_R_SQUARED 0.452, read-out: LUCIFERASE INFECTION ASSAY - IC50) stood at 4.08 µM.

On to `COc1cc(-c2cc(NCc3cccc(C(F)(F)F)c3)ncn2)cc(OC)c1OC`, for which the IC90 is more than 7.87 µM. Besides, the IC50 (FFLUC_HILL_SLOPE 0.883, FFLUC_R_SQUARED 0.362, PBLUC_HILL_SLOPE 0.944, PBLUC_R_SQUARED 0.459, read-out: LUCIFERASE INFECTION ASSAY - IC50) came out at 0.859 µM.

With `CN(c1nc2ccccc2nc1O)C1CCCCC1`, the IC90 was more than 10 µM. For the same compound, the IC50 under setting [1] is more than 10 µM.

Consider `O=C1/C(=C\c2ccccn2)N(CCc2ccccc2)S(=O)(=O)c2ccccc21`, for which the IC90 is more than 8.45 µM. Under setting [1], the half-maximal inhibitory concentration (IC50) is more than 8.45 µM.

On to `CCNc1ccc(S(=O)(=O)C(F)(F)F)cc1NC(=O)c1ccccc1NS(=O)(=O)c1ccc(F)cc1`, for which the IC90 is more than 10 µM. In addition, the IC50 under setting [1] was 1.44 µM.

As for `Cc1occc1NC(=O)N1[C@@H]2CC[C@@H](C2)[C@H]1c1nc2cccc(OCc3ccc(F)cc3)c2[nH]1`, the IC90 is more than 10 µM. Also, the IC50 under setting [1] was more than 10 µM.

As for `CN1/C(=C\C=N\NC(=O)c2ccccc2NS(=O)(=O)c2cccs2)C(C)(C)c2ccccc21`, the IC90 is 1.2 µM. Also, the IC50 (HEPG2TOX_HILL_SLOPE 16.9, HEPG2TOX_R_SQUARED 0.641, PBLUC_HILL_SLOPE 12.4, PBLUC_R_SQUARED 0.659, read-out: LUCIFERASE INFECTION ASSAY - IC50) turned out to be 1.01 µM.

Consider `Cc1noc(C)c1COc1ccc(C(=O)OCC(=O)NCCC2=CCCCC2)cc1`, for which the IC90 came out at 8.4 µM. Moreover, under “HEPG2TOX_HILL_SLOPE 9.34, HEPG2TOX_R_SQUARED 0.702, PBLUC_HILL_SLOPE 3.46, PBLUC_R_SQUARED 0.677, read-out: LUCIFERASE INFECTION ASSAY - IC50”, the IC50 is 4.45 µM.

As for `Cc1c(C)c(C)c(CSC2=NCCCN2C2CCCCC2)c(C)c1C`, the IC90 is more than 8.35 µM. Besides, the IC50 under setting [1] was more than 8.35 µM.

For `c1ccc(-c2csc3nc(-c4ccccn4)nc(Sc4nnc(-c5ccco5)o4)c23)cc1`, the IC90 is more than 10 µM. Besides, under setting [1], the IC50 was more than 10 µM.

Regarding `CCOc1cc2cc(C(=O)c3cc(C)ccc3O)cnc2cc1OC`, the IC90 came to 9.38 µM. Moreover, under “HEPG2TOX_HILL_SLOPE 3.65, HEPG2TOX_R_SQUARED 0.956, PBLUC_HILL_SLOPE 5.3, PBLUC_R_SQUARED 0.515, read-out: LUCIFERASE INFECTION ASSAY - IC50”, the IC50 is 6.19 µM.

Regarding `CN(C)C(=O)c1cccc(-c2cn3c(-c4ccc(CO)cc4)cnc3cn2)c1`, the IC90 is more than 8.86 µM. The IC50 (PBLUC_HILL_SLOPE 11.4, PBLUC_R_SQUARED 0.237, read-out: LUCIFERASE INFECTION ASSAY - IC50) was 8.26 µM.

On to `Cc1csc(=O)n1CC(=O)Nc1cccc2ccccc12`, for which the IC90 is more than 10 µM. The IC50 under setting [1] is more than 10 µM.

For `CCOc1ccc(-n2c(SCC(=O)N(C)Cc3ccccc3)nc3ccccc32)cc1`, the IC90 was more than 10 µM. For the same compound, the IC50 under setting [1] is more than 10 µM.

For `O=[N+]([O-])c1ccc(-c2noc(CCOc3ccc(F)cc3)n2)o1`, the IC90 is 9.89 µM. The IC50 (PBLUC_HILL_SLOPE 3.03, PBLUC_R_SQUARED 0.707, read-out: LUCIFERASE INFECTION ASSAY - IC50) was 4.78 µM.

For `Cc1cc(C)c(Nc2nc(-c3c(-c4ccccc4)noc3C)cs2)c(C)c1`, the IC90 amounted to 5.3 µM. Besides, the IC50 (FFLUC_HILL_SLOPE 43.6, FFLUC_R_SQUARED 0.276, HEPG2TOX_HILL_SLOPE 3.1, HEPG2TOX_R_SQUARED 0.635, PBLUC_HILL_SLOPE 7.7, PBLUC_R_SQUARED 0.763, read-out: LUCIFERASE INFECTION ASSAY - IC50) came out at 3.98 µM.

In the case of `COc1ccccc1-n1c(SCCn2c([N+](=O)[O-])cnc2C)nc2sc3c(c2c1=O)CCCC3`, the IC90 was determined as 4.01 µM. Also, the IC50 (HEPG2TOX_HILL_SLOPE 0.275, HEPG2TOX_R_SQUARED 0.775, PBLUC_HILL_SLOPE 12.8, PBLUC_R_SQUARED 0.595, read-out: LUCIFERASE INFECTION ASSAY - IC50) stood at 3.38 µM.

In the case of `Cc1csc(C(C#N)C(=O)CSc2nc(-c3ccc(Br)cc3)nc3ccccc23)n1` (configuration not stated), the IC90 is more than 10 µM. For the same compound, where the note is “FFLUC_HILL_SLOPE 1.1, FFLUC_R_SQUARED 0.67, read-out: LUCIFERASE INFECTION ASSAY - IC50”, the IC50 is more than 10 µM.

Turning to `Cc1ccc(C)c(-c2nn(CC(=O)N3c4ccccc4CC3C)c(=O)c3ccccc23)c1` (configuration not stated), the IC90 is more than 10 µM. For the same compound, where the note is “HEPG2TOX_HILL_SLOPE 7.77, HEPG2TOX_R_SQUARED 0.247, read-out: LUCIFERASE INFECTION ASSAY - IC50”, the IC50 is more than 10 µM.

For `Clc1cncc2c1Sc1ccccc1N2`, the IC90 is more than 14.1 µM. Moreover, the IC50 under setting [1] turned out to be 14 µM.

As for `Cc1nn(Cc2nnc(SCC(=O)c3ccc(Cl)cc3)n2C)c(C)c1[N+](=O)[O-]`, the IC90 was more than 7.84 µM. The IC50 under setting [1] was more than 7.84 µM.

As for `Cc1[nH]c2ccccc2c1/C=N/N(Cc1ccccc1)c1ccccc1`, the IC90 is more than 10 µM. The IC50 under setting [1] was more than 10 µM.

As to `CC(C)N1CCN(c2ccc(-c3cn4c(-c5ccc(O)cc5)cnc4cn3)cc2)CC1`, the IC90 was more than 7.98 µM. Further, under “PBLUC_HILL_SLOPE 1.81, PBLUC_R_SQUARED 0.0513, read-out: LUCIFERASE INFECTION ASSAY - IC50”, the IC50 was more than 7.98 µM.

As for `Cc1oc2c(c1C(=O)NCC1CCCO1)C(=O)c1ccccc1C2=O` (configuration not stated), the IC90 is 0.328 µM. Moreover, the IC50 (HEPG2TOX_HILL_SLOPE 84.1, HEPG2TOX_R_SQUARED 0.355, PBLUC_HILL_SLOPE 3.6, PBLUC_R_SQUARED 0.607, read-out: LUCIFERASE INFECTION ASSAY - IC50) came out at 0.178 µM.

Take `Cc1nc2sccn2c1C(=O)NCc1ccccc1Oc1ccccc1`: the IC90 was more than 9.08 µM. In addition, the IC50 under setting [1] was more than 9.08 µM.

With `COc1cccc(-c2ccc3ncc(-c4ccc(NC(C)=O)cc4)n3n2)c1`, the 90% effect concentration (IC90) worked out at 3.39 µM. The IC50 (HEPG2TOX_HILL_SLOPE 0.992, HEPG2TOX_R_SQUARED 0.946, PBLUC_HILL_SLOPE 0.779, PBLUC_R_SQUARED 0.716, read-out: LUCIFERASE INFECTION ASSAY - IC50) was found to be 0.202 µM.

For the compound `CCSc1nccc(-c2ccc3c(c2)CCC(C)(C)O3)n1`, the IC90 was found to be 3.37 µM. Also, for the setting “PBLUC_HILL_SLOPE 1.33, PBLUC_R_SQUARED 0.696, read-out: LUCIFERASE INFECTION ASSAY - IC50”, the IC50 was found to be 0.648 µM.

`Cc1cccc(-c2nc3c(c(SCCN4CCCC4)n2)COC(C)(C)C3)c1`: the IC90 was more than 8.6 µM. The IC50 under setting [1] was more than 8.6 µM.

Take `COC(=O)c1cc(OC)c(OC)cc1NC(=O)c1ccc(-c2cccc(Br)c2)nc1C`: the IC90 is more than 10 µM. Also, the IC50 under setting [1] was more than 10 µM.

For `CC(=O)N1N=C(c2ccccc2O)CC1c1c(F)cccc1Cl` (configuration not stated), the IC90 came out at 9.88 µM. For the setting “HEPG2TOX_HILL_SLOPE 8.22, HEPG2TOX_R_SQUARED 0.351, PBLUC_HILL_SLOPE 15.6, PBLUC_R_SQUARED 0.178, read-out: LUCIFERASE INFECTION ASSAY - IC50”, the IC50 was 8.59 µM.

As to `CCN1CCN(c2ccc(S(=O)(=O)N3CCCCC3)cc2NC(=O)COc2ccc(Cl)c(C)c2)CC1`, the IC90 was more than 10 µM. Also, under setting [1], the IC50 amounted to 9.01 µM.

Turning to `S=c1[nH]c2ccccc2n1C1CCCCC1`, the IC90 is more than 10 µM. In addition, the IC50 under setting [1] is more than 10 µM.
